# Assay results: EPA's ToxValDB 9.5
# Values joined by “and” are separate entries in the source; they are usually repeats but may differ in a detail not shown here. Equal values may be shown once.
# Legend:
# Rattus norvegicus [1] = settings: oral, M/F
# Rattus norvegicus [2] = settings: subchronic, duration: 56 days, oral, diet, M, Sprague-Dawley
# Mus musculus = settings: short-term, duration: 28 days, oral, gavage, F, B6C3F1
# Rattus norvegicus [3] = settings: acute; oral; gavage
# Rattus norvegicus [4] = settings: oral
# [5] = reproduction developmental, Increased incidence of hepatocellular changes including fatty change and vacuolation (M) increased susceptibility to stress factors (F)
# [6] = Liver: Liver Weight, Relative + Thymus: CD8+ Cell Count
# [7] = Spleen: Spleen Weight, Relative + Whole Body: Body Weight Change
# [8] = subchronic, gavage, M, Sprague-Dawley
# [9] = subchronic, duration: 90 days, diet, increased male spleen weight and che depression (females)
# [10] = chronic, duration: 91 days, gavage, M/F, Wistar, Blood Chemistry: Ca increase, TP increase, Glob increase, TG increase, Glu decrease + Absolute Organ Weight: Liver increase, Kidney increase…
# [11] = short-term, duration: 28 days, gavage, M, Sprague-Dawley, Clinical Observation: Salivation Orange urinelocomotor activity decreaserespiratory rate decrease, Incomplete eye opening Staining around …
structure (smiles),measurement,setting,value
CC(C)C(O)(c1ccc(OC(F)(F)F)cc1)c1cncnc1 (stereo not given) [Flurprimidol],LEL,Rattus norvegicus [1]; [5],7.3 mg/kg-day
same,NOEL,Rattus norvegicus [1]; [5],1.8 mg/kg-day
CCNS(=O)(=O)C(F)(F)C(F)(F)C(F)(F)C(F)(F)C(F)(F)C(F)(F)C(F)(F)C(F)(F)F [N-Ethylperfluorooctanesulfonamide],LEL,Rattus norvegicus [2]; Whole Body: Body Weight Change,6.82 mg/kg-day and 5.7 mg/kg-day
same,NEL,Rattus norvegicus [2]; Whole Body: Clinical Observations,6.82 mg/kg-day and 5.7 mg/kg-day
same,LEL,Mus musculus; [6],1 mg/kg-day
same,NEL,Mus musculus; [6],0.3 mg/kg-day
same,NEL,Mus musculus; Spleen: B Cell Proliferation + Spleen: B220+ Cell Count + Spleen: CD4-/CD8- Cell Count + Spleen: CD4+ Cell Count + Spleen: CD4+/CD8+ Cell …,10 mg/kg-day
same,LEL,"Mus musculus; Spleen: Plaque Forming Cell (PFC) Response + Uterus: Uterus Weight, Relative",0.3 mg/kg-day
same,LEL,Mus musculus; [7],10 mg/kg-day
same,NEL,Mus musculus; [7],3 mg/kg-day
"CCCCCCCCCCCCCCCCCC(=O)OCCOC(=O)CCCCCCCCCCCCCCCCC [Octadecanoic acid, 1,2-ethanediyl ester]",LD50,Rattus norvegicus [3],> 10000 mg/kg
same,NOAEL,Rattus norvegicus [4]; [8],1000 mg/kg-day
same,NOEL,Rattus norvegicus [4]; [8],1000 mg/kg-day
CC(C)OC(=O)Nc1ccccc1 [Propham],LEL,Rattus norvegicus [1]; [9],100 mg/kg-day
same,NOEL,Rattus norvegicus [1]; [9],50 mg/kg-day
c1ccc(P(c2ccccc2)c2ccccc2)cc1 [Triphenylphosphine],NOAEL,Rattus norvegicus [4]; [10],60 mg/kg-day
same,NOEL,Rattus norvegicus [4]; [10],6 mg/kg-day
O=[N+]([O-])C(Br)=Cc1ccccc1 [beta-Bromo-beta-nitrostyrene],NOEL,"Rattus norvegicus [4]; subchronic, gavage, M/F, Fischer 344, Deaths + Body Weight Changes: decrease>150 af>>300 + Hematology: RBC increase, WBC increase, Seg increase, Ret increase + Blood Chemistry: …",< 37 mg/kg-day
CC(=O)/C=C/C1=C(C)CCCC1(C)C [beta-Ionone],NOAEL,"Rattus norvegicus [4]; subchronic, duration: 90 days, diet, M/F, Wistar, Urinalysis: Ket increase, Uro increase, Transitional epithelial cell increase, Epithelial cell casts + Blood Chemistry: gamma-GTP increase, …",96 mg/kg-day
COc1ccc([N+](=O)[O-])cc1 [p-Nitroanisole],NOAEL,Rattus norvegicus [4]; [11],100 mg/kg-day
same,NOEL,Rattus norvegicus [4]; [11],< 100 mg/kg-day
"N#Cc1c(Cl)c(Cl)c(C#N)c(Cl)c1Cl [p-Phthalodinitrile, tetrachloro-]",NOEL,"Rattus norvegicus [4]; subchronic, gavage, Sprague-Dawley",1000 mg/kg-day
CC(C)(C)S [t-Butyl mercaptan],NOEL,"Rattus norvegicus [4]; subchronic, gavage, M, CD(SD), Clinical Observation: Salivation + Body Weight Changes: decrease + Food Consumption: decrease + Hematology: RBC decrease, HGB decrease, HCT …",< 10 mg/kg-day
same,NOEL,"Rattus norvegicus [4]; subchronic, gavage, M, Sprague-Dawley, Body Weight Changes: decrease200 + Hematology: MCHC decrease, APTT increase, RBC decrease, Hgb decrease, Hct decrease, Plt increase, PT …",< 10 mg/kg-day
ClC1=C(Cl)[C@]2(Cl)[C@H]3[C@H]([C@H](Cl)C(Cl)[C@@H]3Cl)[C@@]1(Cl)C2(Cl)Cl (stereo partly drawn) [trans-Nonachlor],NOEL,"Rattus norvegicus [4]; subchronic, diet, M/F, Sprague-Dawley, Blood Chemistry: Pi increase, A/G decrease, Thyroxine increasetake decrease, T4 increase + Absolute Organ Weight: Liver increase + Relative …",< 0.48 mg/kg-day
